Literature values in paper PMC6525002 (Cancer Management and Research, 2019).

Columns and labels:
patients with NSCLC = settings: clinical trials; cited from earlier work
[1] = cited from earlier work
[2] = test system: NSCLC patients with EGFR mutations; settings: cited from earlier work

| Compound | frequency of diarrhea (patients with NSCLC) | time to Cmax ([1]; cancer patients, post-dose) [h] | inter-patient variability of exposure ([1]; post single-dose exposure) [fold] | response rates on brain metastases [2] |
| --- | --- | --- | --- | --- |
| CN(C)C/C=C/C(=O)Nc1cc2c(Nc3ccc(F)c(Cl)c3)ncnc2cc1O[C@H]1CCOC1 [afitinib] | 87.0% | – | – | – |
| COc1cc2ncnc(Nc3ccc(F)c(Cl)c3)c2cc1OCCCN1CCOCC1 [gefitinib] | – | 3 | 1.5 | – |
| C#Cc1cccc(Nc2ncnc3cc(OCCOC)c(OCCOC)cc23)c1 [erlotinib] | 40.0–67.9% | – | – | 60–80% |
